Results as given in ChEMBL document CHEMBL4118070, “Synthesis, antimicrobial, antiquorum-sensing and antitumor activities of new benzimidazole analogs” (Eur J Med Chem, 2017).
pIC50: −log10 of the molar value. Values after ≈ are worked out from the molar mass of the structure shown. Active and inactive are the calls of the source. The calls are words filed in the database; no cut-off is given here.

Experiments:
[1] = test system: Escherichia coli; assay: Antibacterial activity against Escherichia coli ATCC 12435 after 24 hrs by two-fold serial dilution method; type: functional; conditions: ATCC 12435, 24 h
[2] = test system: Bacillus cereus; assay: Antibacterial activity against Bacillus cereus UW 85 after 24 hrs by two-fold serial dilution method; type: functional; conditions: UW 85, 24 h
[3] = test system: Staphylococcus aureus; assay: Antibacterial activity against Staphylococcus aureus ATCC 29213 after 24 hrs by two-fold serial dilution method; type: functional; conditions: ATCC 29213, 24 h
[4] = test system: Candida albicans; assay: Antifungal activity against Candida albicans after 48 hrs by two-fold serial dilution method; type: functional
[5] = test system: Aspergillus fumigatus; assay: Antifungal activity against Aspergillus fumigatus 293 after 48 hrs by two-fold serial dilution method; type: functional; conditions: Af293, 48 h
[6] = test system: Chromobacterium violaceum; assay: Inhibition of quorum sensing system in Chromobacterium violaceum ATCC 12472 assessed as diameter of violacein pigment inhibition at 5 mg/ml after 48 hrs
[7] = test system: HepG2; assay: Cytotoxicity against human HepG2 cells assessed as decrease in cell viability after 48 hrs by MTT assay; type: functional, cell-based; conditions: HepG2, 48 h
[8] = test system: HCT-116; assay: Cytotoxicity against human HCT116 cells assessed as decrease in cell viability after 48 hrs by MTT assay; type: functional, cell-based; conditions: HCT-116, 48 h
[9] = test system: MCF7; assay: Cytotoxicity against human MCF7 cells assessed as decrease in cell viability after 48 hrs by MTT assay; type: functional, cell-based; conditions: MCF7, 48 h
[10] = Displacement of methyl green from DNA (unknown origin) incubated in dark for 24 hrs by colorimetric method
[11] = test system: Ehrlich; assay: Antitumor activity against mouse EAC allografted in Swiss mouse assessed as mean mouse survival time at 0.5 mg administered 9 days (reference value: 14.5 days); type: functional
[12] = test system: Ehrlich; assay: Antitumor activity against mouse EAC allografted in Swiss mouse assessed as increase in mouse life span at 0.5 mg administered 9 days relative to control; type: functional
[13] = test system: Ehrlich; assay: Antitumor activity against mouse EAC allografted in Swiss mouse assessed as tumor volume at 0.5 mg administered 9 days (reference value: 9.85 ml); type: functional
[14] = test system: Ehrlich; assay: Antitumor activity against mouse EAC allografted in Swiss mouse assessed as hemoglobin count in blood at 0.5 mg administered 9 days (reference value: 8.73 g/dl); type: functional
[15] = test system: Ehrlich; assay: Antitumor activity against mouse EAC allografted in Swiss mouse assessed as RBC count in blood at 0.5 mg administered 9 days (reference value: 3.69 10^6/mm3); type: functional
[16] = test system: Ehrlich; assay: Antitumor activity against mouse EAC allografted in Swiss mouse assessed as WBC count in blood at 0.5 mg administered 9 days (reference value: 23.96 10^3/mm3); type: functional
[17] = test system: WI-38; assay: Cytotoxicity against human W138 cells assessed as decrease in cell viability after 48 hrs by MTT assay; type: cell-based; conditions: WI-38, 48 h
[18] = test system: Ehrlich; assay: Antitumor activity against mouse EAC allografted in Swiss mouse assessed as decrease in viable tumor cell count at 0.5 mg administered 9 days by trypan blue staining method; type: functional

| SMILES | MIC [1] | MIC [2] | MIC [3] | MIC [4] | MIC [5] | Activity [6] | pIC50 [7] | pIC50 [8] | pIC50 [9] | pIC50 [10] | MST [11] | ILS [12] | Activity [13] | Activity [14] | Activity [15] | Activity [16] | pIC50 [17] | Activity [18] |
| --- | --- | --- | --- | --- | --- | --- | --- | --- | --- | --- | --- | --- | --- | --- | --- | --- | --- | --- |
| CCOC(=O)c1c(NC(=O)CSCc2nc3cc([N+](=O)[O-])ccc3[nH]2)sc2c1CCCCC2 | 2560 µM | 2560 µM | 2560 µM | 1280 µM (≈ 625 µg/mL) | 2560 µM | < 2 mm | 5.13 | 5.12 | 4.99 |  |  |  |  |  |  |  |  |  |
| NC(=O)CSCc1nc2cc([N+](=O)[O-])ccc2[nH]1 | 587 µM | 293 µM | 147 µM | 147 µM (≈ 39.1 µg/mL) | 293 µM | 9 mm | 4.57 | 4.76 | 4.71 | 4.38 |  |  |  |  |  |  |  |  |
| OC(Cn1cncn1)(Cn1cncn1)c1ccc(F)cc1F [FLUCONAZOLE] |  |  |  | 8160 µM (≈ 2500 µg/mL) | > 2500 µg/mL |  |  |  |  |  |  |  |  |  |  |  |  |  |
| NC(=S)NNC(=O)CSCc1nc2cc([N+](=O)[O-])ccc2[nH]1 | > 2500 µg/mL | 3670 µM | 918 µM | 459 µM (≈ 156 µg/mL) | 1840 µM | 11 mm | 5.15 | 5.33 | 5.12 | 4.18 |  |  |  |  |  |  |  |  |
| O=c1[nH]cc(F)c(=O)[nH]1 [FLUOROURACIL] |  |  |  |  |  |  | 5.28 | 5.40 | 5.37 |  | 49 days | 237.93% | 1.6 mL | 12.96 g/dL | 5.21 ×10⁶ /mm3 | 8.86 ×10³ /mm3 | 5.24 |  |
| N#Cc1sc(Nc2ccccc2)nc1NC(=O)CSCc1nc2cc([N+](=O)[O-])ccc2[nH]1 | > 2500 µg/mL | 5370 µM | 5370 µM | 2690 µM (≈ 1250 µg/mL) | 5370 µM | < 2 mm | 5.02 | 5.07 | 4.95 |  |  |  |  |  |  |  |  |  |
| COc1cccc2c1C(=O)c1c(O)c3c(c(O)c1C2=O)C[C@@](O)(C(=O)CO)C[C@@H]3O[C@H]1C[C@H](N)[C@H](O)[C@H](C)O1 [DOXORUBICIN] |  |  |  |  |  |  |  |  |  | 4.49 |  |  |  |  |  |  |  |  |
| CC1(C)S[C@@H]2[C@H](NC(=O)[C@H](N)c3ccccc3)C(=O)N2[C@H]1C(=O)O [AMPICILLIN] | 55.9 µM | 3580 µM | 894 µM |  |  |  |  |  |  |  |  |  |  |  |  |  |  |  |
| Oc1cc(O)c2c(c1)O[C@H](c1ccc(O)c(O)c1)[C@@H](O)C2 |  |  |  |  |  | 2 mm |  |  |  |  |  |  |  |  |  |  |  |  |
| CC1=NN(C(=O)CSCc2nc3cc([N+](=O)[O-])ccc3[nH]2)C(=O)C1 | > 2500 µg/mL | > 2500 µg/mL | > 2500 µg/mL | 7200 µM (≈ 2500 µg/mL) | > 2500 µg/mL | < 2 mm | 5.13 | 5.27 | 5.09 |  |  |  |  |  |  |  |  |  |
| N#CCSCc1nc2cc([N+](=O)[O-])ccc2[nH]1 | > 2500 µg/mL | 5040 µM | > 2500 µg/mL | 5040 µM (≈ 1250 µg/mL) | 5040 µM | < 2 mm | 4.51 | 4.55 | 4.56 |  |  |  |  |  |  |  |  |  |
| CCOC(=O)CSCc1nc2cc([N+](=O)[O-])ccc2[nH]1 | 4230 µM | 2120 µM | 2120 µM | 2120 µM (≈ 625 µg/mL) | 2120 µM | < 2 mm | < 4.00 | < 4.00 | < 4.00 |  |  |  |  |  |  |  |  |  |
| O=C(CSCc1nc2cc([N+](=O)[O-])ccc2[nH]1)NNC(=S)Nc1ccccc1 | > 2500 µg/mL | > 2500 µg/mL | > 2500 µg/mL | 375 µM (≈ 156 µg/mL) | 750 µM | < 2 mm | < 4.00 | 4.54 | < 4.00 | 4.28 |  |  |  |  |  |  |  |  |
| O=[N+]([O-])c1ccc2[nH]c(CSCc3nc4ccccc4[nH]3)nc2c1 | > 2500 µg/mL | > 2500 µg/mL | 3680 µM | 3680 µM (≈ 1250 µg/mL) | > 2500 µg/mL | 4 mm | 4.95 | 5.10 | 4.88 |  |  |  |  |  |  |  |  |  |
| O=C(CSCc1nc2cc([N+](=O)[O-])ccc2[nH]1)c1ccc(Cl)cc1 | > 2500 µg/mL | 6910 µM | 864 µM | 864 µM (≈ 312 µg/mL) | 3450 µM | < 2 mm | 5.58 | 5.65 | 5.55 | 4.20 | 39.2 days | 170.34% | 2.83 mL | 12.32 g/dL | 4.87 ×10⁶ /mm3 | 9.1 ×10³ /mm3 | 4.47 | Active |
| O=C(CSCc1nc2cc([N+](=O)[O-])ccc2[nH]1)N/N=C/c1ccc(Cl)cc1 | > 2500 µg/mL | > 2500 µg/mL | > 2500 µg/mL | 774 µM (≈ 312 µg/mL) | 1550 µM | < 2 mm | 4.25 | 4.81 | 4.86 |  |  |  |  |  |  |  |  |  |
| O=C(CSCc1nc2cc([N+](=O)[O-])ccc2[nH]1)c1ccc(Br)cc1 | > 2500 µg/mL | 769 µM | 192 µM | 385 µM (≈ 156 µg/mL) | 385 µM | < 2 mm | 5.70 | 5.75 | 5.81 | 4.46 | 45.3 days | 212.42% | 2.41 mL | 12.92 g/dL | 5.14 ×10⁶ /mm3 | 7.41 ×10³ /mm3 | 4.50 | Active |
| O=[N+]([O-])c1ccc2[nH]c(CSCc3nc4cc([N+](=O)[O-])ccc4[nH]3)nc2c1 | 1630 µM | 813 µM | 406 µM | 406 µM (≈ 156 µg/mL) | 406 µM | 11 mm | 5.65 | 5.62 | 5.76 | 4.43 | 47 days | 224.14% | 2.22 mL | 13.18 g/dL | 5.45 ×10⁶ /mm3 | 7.23 ×10³ /mm3 | 4.60 | Active |
| O=C(CSCc1nc2cc([N+](=O)[O-])ccc2[nH]1)c1ccccc1 | > 2500 µg/mL | > 2500 µg/mL | 3820 µM | 1910 µM (≈ 625 µg/mL) | 7640 µM | < 2 mm | 4.79 | 4.91 | 4.73 |  |  |  |  |  |  |  |  |  |
| NNC(=O)CSCc1nc2cc([N+](=O)[O-])ccc2[nH]1 | > 2500 µg/mL | > 2500 µg/mL | > 2500 µg/mL | 1110 µM (≈ 312 µg/mL) | 4440 µM | < 2 mm | 4.73 | 5.27 | 4.88 | 4.06 |  |  |  |  |  |  |  |  |
